The text below walks through data of patent US8476265B2, “Compounds-801” (AstraZeneca AB, priority 2010, dated 2013).

For assay [1], the target named is T1, human muscarinic acetylcholine M3 receptor (Homo sapiens, UniProt P20309).
T1 construct: expressed in transfected cells; host or cells: CHO-K1 (Chinese Hamster Ovary) cell membranes
Kind of assay: Muscarinic 3 receptor binding assay ([3H]NMS competition, SPA), pIC50. Conditions: [3H]NMS 0.1 nM, CHO-K1 cell membranes expressing human M3 receptor. Put shortly: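 Competition of [3H]NMS (0.1 nM, quarter Kd) binding to CHO-K1 membranes expressing human M3, SPA format, in 20 mM HEPES pH 7.4, 5 mM MgCl2, 0.1% BSA, 1% DMSO. Incubated 16 h at room temperature; non-specific binding with 1 μM atropine; pIC50 from specific binding.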

Assay [2] has as its target T2, Adrenergic β2 (Homo sapiens, UniProt P07550).
T2 construct: Adherent H292 cells are removed from tissue culture flasks by treatment with Accutase™ cell detachment solution; endogenous in cells; host or cells: H292 cells
Nature of the assay: Adrenergic β2 mediated cAMP production in H292 cells, single concentration 1 μM. Type of assay: cell-based. Conditions: NCI-H292, 1 μM compound, cAMP as percentage of the maximum response generated by 1E-07M formoterol, read-out: β2 % effect @1 uM. The gist of the method: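 H292 cells pretreated with rolipram (300 μM final) 10 min, then compound at 1 μM final, 1% DMSO, 60 min at room temperature in HBSS/10 mM HEPES pH 7.4/5 mM glucose. Lysate cAMP quantified by AlphaScreen against a standard curve, as % of maximal response to 1E-07M formoterol.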

For assay [3], the target named is T1, human muscarinic acetylcholine M3 receptor. Kind of assay: Muscarinic 3 receptor binding assay ([3H]NMS competition, SPA), single concentration 1 μM. Conditions: 1 μM compound; % inhibition specific [3H]-NMS binding. The gist of the method:
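CHO-K1 membranes expressing human M3 on SPA beads, competition with 0.1 nM [3H]NMS (quarter Kd) in 20 mM HEPES pH 7.4, 5 mM MgCl2, 0.1% BSA, 1% DMSO; compound at 1 μM. 16 h at room temperature. Value is % inhibition of specific binding, non-specific defined with 1 μM atropine.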

In assay [4] the target is T2, Adrenergic β2. Nature of the assay: Adrenergic β2 mediated cAMP production in H292 cells (AlphaScreen), concentration response. Conditions: for EC50: 60 min, 300 μM rolipram, read-out: β2 pEC50 (converted); for β2 Intrinsic Activity: fraction relative to the maximum activity determined for formoterol. Format: cell-based. Put shortly: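 H292 cells seeded overnight, pretreated 10 min with rolipram (300 μM final), then exposed to compounds 60 min at room temperature in HBSS/10 mM HEPES pH 7.4/5 mM glucose, 1% DMSO. Lysate cAMP quantified by AlphaScreen against a standard curve; four-parameter fit gives pEC50 and intrinsic activity relative to formoterol maximum.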

Each structure is given as a SMILES string. Bounds are passed on as bounds.

T1 sequence (P20309 whole entry): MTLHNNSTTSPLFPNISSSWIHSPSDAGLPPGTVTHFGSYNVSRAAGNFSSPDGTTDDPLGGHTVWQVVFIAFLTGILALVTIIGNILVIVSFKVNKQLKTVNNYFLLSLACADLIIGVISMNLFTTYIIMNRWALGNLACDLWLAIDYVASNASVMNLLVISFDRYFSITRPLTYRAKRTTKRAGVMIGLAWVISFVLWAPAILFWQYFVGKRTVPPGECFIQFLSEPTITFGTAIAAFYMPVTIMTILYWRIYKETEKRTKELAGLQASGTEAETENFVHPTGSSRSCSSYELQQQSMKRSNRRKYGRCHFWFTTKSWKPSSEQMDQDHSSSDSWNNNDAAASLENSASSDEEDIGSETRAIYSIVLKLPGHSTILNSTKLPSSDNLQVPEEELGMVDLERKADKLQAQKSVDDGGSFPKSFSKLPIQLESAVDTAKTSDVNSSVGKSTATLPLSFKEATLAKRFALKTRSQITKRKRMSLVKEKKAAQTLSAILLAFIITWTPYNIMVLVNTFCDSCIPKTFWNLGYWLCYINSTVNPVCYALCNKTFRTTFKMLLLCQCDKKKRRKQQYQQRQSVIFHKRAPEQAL
T2 sequence (P07550 whole entry): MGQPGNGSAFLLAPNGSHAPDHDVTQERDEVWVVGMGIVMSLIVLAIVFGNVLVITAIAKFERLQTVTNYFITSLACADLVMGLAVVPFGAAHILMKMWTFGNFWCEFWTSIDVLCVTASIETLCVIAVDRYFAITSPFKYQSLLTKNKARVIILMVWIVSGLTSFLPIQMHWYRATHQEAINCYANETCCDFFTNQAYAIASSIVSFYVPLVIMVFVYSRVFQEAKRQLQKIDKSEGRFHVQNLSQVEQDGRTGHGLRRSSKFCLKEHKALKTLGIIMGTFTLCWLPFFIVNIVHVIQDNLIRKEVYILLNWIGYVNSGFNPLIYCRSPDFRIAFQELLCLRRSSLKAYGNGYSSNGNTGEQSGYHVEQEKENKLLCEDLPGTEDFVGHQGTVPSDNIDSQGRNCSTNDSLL

Take `Cc1ccn2cc(C(=O)N3CCOC4(CCN(Cc5cccc(CCOCCC(=O)N(CCNCCc6ccc(O)c7c6OCC(=O)N7)C6CCCCC6)c5)CC4)C3)nc2c1` [Example 150, N-Cyclohexyl-N-(2-(2-(5-hydroxy-3-oxo-3,4-dihydro-2H-benzo[b][1,4]oxazin-8-yl)ethylamino)ethyl)-3-(3-((4-(7-methylimidazo[1,2-a]pyridine-2-carbonyl)-1-oxa-4,9-diazaspiro[5.5]undecan-9-yl)methyl)phenethoxy)propanamide]: the IC50 in assay [1] was 0.00316 µM. Moreover, in assay [2], the percent of formoterol maximum response at 1 µM was 104%. Also, in assay [3], the inhibition at 1 µM was 99%. In addition, in assay [4], the EC50 was 0.0794 µM and the “β2 Intrinsic Activity” value is reported as 0.5.
Turning to `O=C1COc2c(CCNCCN(C(=O)CCOCCc3cccc(CN4CCC5(CC4)CN(C(=O)c4ccc(C(F)(F)F)cn4)CCO5)c3)C3CCCCC3)ccc(O)c2N1` [Example 149, N-Cyclohexyl-N-(2-(2-(5-hydroxy-3-oxo-3,4-dihydro-2H-benzo[b][1,4]oxazin-8-yl)ethylamino)ethyl)-3-(3-((4-(5-(trifluoromethyl)picolinoyl)-1-oxa-4,9-diazaspiro[5.5]undecan-9-yl)methyl)phenethoxy)propanamide], the IC50 in assay [1] was 0.000501 µM. The percent of formoterol maximum response at 1 µM in assay [2] was determined as 90%. Besides, the inhibition at 1 µM in assay [3] came to 99%. Moreover, in assay [4], the EC50 was 0.126 µM and the “β2 Intrinsic Activity” value was 1.0.
Take `O=C1COc2c(CCNCCN(C(=O)CCOCCc3cccc(CN4CCC5(CC4)CN(C(=O)c4csc(CC(F)(F)F)n4)CCO5)c3)C3CCCCC3)ccc(O)c2N1` [Example 174, N-Cyclohexyl-N-(2-(2-(5-hydroxy-3-oxo-3,4-dihydro-2H-benzo[b][1,4]oxazin-8-yl)ethylamino)ethyl)-3-(3-((4-(2-(2,2,2-trifluoroethyl)thiazole-4-carbonyl)-1-oxa-4,9-diazaspiro[5.5]undecan-9-yl)methyl)phenethoxy)propanamide]: the IC50 in assay [1] is 0.000251 µM. In addition, the percent of formoterol maximum response at 1 µM in assay [2] worked out at 88%. Also, the inhibition at 1 µM in assay [3] came to 100%. In addition, in assay [4], the EC50 is 0.0501 µM and the “β2 Intrinsic Activity” value is on record as 1.0.
In the same order, the values of `O=C1COc2c(CCNCCN(C(=O)CCOCCc3cccc(CN4CCC5(CC4)CN(C(=O)[C@@H]4C[C@H]4c4ccccc4)CCO5)c3)C3CCCCC3)ccc(O)c2N1` [Example 167, N-Cyclohexyl-N-(2-(2-(5-hydroxy-3-oxo-3,4-dihydro-2H-benzo[b][1,4]oxazin-8-yl)ethylamino)ethyl)-3-(3-((4-((1R,2R)-2-phenylcyclopropanecarbonyl)-1-oxa-4,9-diazaspiro[5.5]undecan-9-yl)methyl)phenethoxy)propanamide] are 0.000316 µM, 105%, 101%, 0.1 µM and 0.4.
`O=C1COc2c(CCNCCN(C(=O)CCOCCc3cccc(CN4CCC5(CC4)CN(C(=O)c4cnc6ccccc6n4)CCO5)c3)C3CCCCC3)ccc(O)c2N1` [Example 119, N-Cyclohexyl-N-(2-(2-(5-hydroxy-3-oxo-3,4-dihydro-2H-benzo[b][1,4]oxazin-8-yl)ethylamino)ethyl)-3-(3-((4-(quinoxaline-2-carbonyl)-1-oxa-4,9-diazaspiro[5.5]undecan-9-yl)methyl)phenethoxy)propanamide] gave a half-inhibitory concentration (IC50) in assay [1] of 0.002 µM. Besides, in assay [2], the percent of formoterol maximum response at 1 µM amounted to 84%. Moreover, the inhibition at 1 µM in assay [3] was 100%. In addition, in assay [4], the EC50 was 0.158 µM and the “β2 Intrinsic Activity” value is above 0.9.
In turn, `O=C1COc2c(CCNCCN(C(=O)CCOCCc3cccc(CN4CCC5(CC4)CN(C(=O)c4cc6ccccn6n4)CCO5)c3)C3CCCCC3)ccc(O)c2N1` [Example 146, N-Cyclohexyl-N-(2-(2-(5-hydroxy-3-oxo-3,4-dihydro-2H-benzo[b][1,4]oxazin-8-yl)ethylamino)ethyl)-3-(3-((4-(pyrazolo[1,5-a]pyridine-2-carbonyl)-1-oxa-4,9-diazaspiro[5.5]undecan-9-yl)methyl)phenethoxy)propanamide] gave an IC50 in assay [1] of 0.000398 µM. In addition, in assay [2], the percent of formoterol maximum response at 1 µM was determined as 96%. The inhibition at 1 µM in assay [3] was found to be 100%. In assay [4], the EC50 was 0.0794 µM and the “β2 Intrinsic Activity” value is listed as 0.9.
Regarding `Cc1csc(C(=O)N2CCOC3(CCN(Cc4cccc(CCOCCC(=O)N(CCNCCc5ccc(O)c6c5OCC(=O)N6)C5CCCCC5)c4)CC3)C2)c1` [Example 138, N-Cyclohexyl-N-(2-(2-(5-hydroxy-3-oxo-3,4-dihydro-2H-benzo[b][1,4]oxazin-8-yl)ethylamino)ethyl)-3-(3-((4-(4-methythiophene-2-carbonyl)-1-oxa-4,9-diazaspiro[5.5]undecan-9-yl)methyl)phenethoxy)propanamide], in assay [1], the half-inhibitory concentration (IC50) is 0.0002 µM. The percent of formoterol maximum response at 1 µM in assay [2] was 92%. The inhibition at 1 µM in assay [3] was determined as 100%. Moreover, in assay [4], the EC50 is 0.126 µM and the “β2 Intrinsic Activity” value is listed as 0.9.
As for `O=C1COc2c(CCNCCN(C(=O)CCOCCc3cccc(CN4CCC5(CC4)CN(C(=O)C4COc6ccccc6O4)CCO5)c3)C3CCCCC3)ccc(O)c2N1` (centres unmarked) [Example 115, N-Cyclohexyl-3-(3-((4-(2,3-dihydrobenzo[b][1,4]dioxine-2-carbonyl)-1-oxa-4,9-diazaspiro[5.5]undecan-9-yl)methyl)phenethoxy)-N-(2-(2-(5-hydroxy-3-oxo-3,4-dihydro-2H-benzo[b][1,4]oxazin-8-yl)ethylamino)ethyl)propanamide], the half-inhibitory concentration (IC50) in assay [1] is 0.000158 µM. Moreover, the percent of formoterol maximum response at 1 µM in assay [2] was found to be 93%. For the same molecule, the inhibition at 1 µM in assay [3] stood at 100%. In addition, in assay [4], the EC50 was 0.126 µM and the “β2 Intrinsic Activity” value is reported as 0.6.
With `O=C1COc2c(CCNCCN(C(=O)CCOCCc3cccc(CN4CCC5(CC4)CN(C(=O)c4ccc6cccnc6n4)CCO5)c3)C3CCCCC3)ccc(O)c2N1` [Example 161, 3-(3-((4-(1,8-Naphthyridine-2-carbonyl)-1-oxa-4,9-diazaspiro[5.5]undecan-9-yl)methyl)phenethoxy)-N-cyclohexyl-N-(2-(2-(5-hydroxy-3-oxo-3,4-dihydro-2H-benzo[b][1,4]oxazin-8-yl)ethylamino)ethyl)propanamide], in assay [1], the IC50 was 0.000501 µM. Also, the percent of formoterol maximum response at 1 µM in assay [2] turned out to be 97%. Moreover, in assay [3], the inhibition at 1 µM turned out to be 100%. Also, in assay [4], the EC50 is 0.0398 µM and the “β2 Intrinsic Activity” value was found to be 1.0.
Taken in the same sequence, the figures for `O=C1COc2c(CCNCCN(C(=O)CCOCCc3cccc(CN4CCC5(CC4)CN(C(=O)c4ccc6c(c4)OCO6)CCO5)c3)C3CCCCC3)ccc(O)c2N1` [Example 157, 3-(3-((4-(Benzo[d][1,3]dioxole-5-carbonyl)-1-oxa-4,9-diazaspiro[5.5]undecan-9-yl)methyl)phenethoxy)-N-cyclohexyl-N-(2-(2-(5-hydroxy-3-oxo-3,4-dihydro-2H-benzo[b][1,4]oxazin-8-yl)ethylamino)ethyl)propanamide] were 0.00158 µM, 97%, 101%, 0.0631 µM and 0.8.
